Laboratory results: PubChem BioAssay (NCI)
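The compound was tested at five concentrations on cells cultured in 96-well plates, with a 48-hour exposure period. GI50 = concentration required for 50% inhibition of growth. Definition used: TGI = concentration required for complete inhibition of growth.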

Key:
Experiment in all cases: NCI tumour cell line growth inhibition, 48 h
786-0 renal = test system: 786-0 renal
A498 renal = test system: A498 renal
A549 NSCLC = test system: A549 NSCLC
ACHN renal = test system: ACHN renal
BT-549 breast = test system: BT-549 breast
CAKI-1 renal = test system: CAKI-1 renal
CCRF-CEM leukemia = test system: CCRF-CEM leukemia
COLO 205 colon = test system: COLO 205 colon
DU-145 prostate = test system: DU-145 prostate
EKVX NSCLC = test system: EKVX NSCLC
HCC-2998 colon = test system: HCC-2998 colon
HCT-116 colon = test system: HCT-116 colon
HCT-15 colon = test system: HCT-15 colon
HL-60(TB) leukemia = test system: HL-60(TB) leukemia
HOP-62 NSCLC = test system: HOP-62 NSCLC
HOP-92 NSCLC = test system: HOP-92 NSCLC
HS 578T breast = test system: HS 578T breast
HT29 colon = test system: HT29 colon
IGROV1 ovarian = test system: IGROV1 ovarian
K-562 leukemia = test system: K-562 leukemia
KM12 colon = test system: KM12 colon
LOX IMVI melanoma = test system: LOX IMVI melanoma
M14 melanoma = test system: M14 melanoma
MALME-3M melanoma = test system: MALME-3M melanoma
MCF7 breast = test system: MCF7 breast
MDA-MB-231 breast = test system: MDA-MB-231 breast
MDA-MB-435 = test system: MDA-MB-435
MDA-MB-468 breast = test system: MDA-MB-468 breast
MOLT-4 leukemia = test system: MOLT-4 leukemia
NCI-H226 lung = test system: NCI-H226 lung
NCI-H23 lung = test system: NCI-H23 lung
NCI-H460 lung = test system: NCI-H460 lung
NCI-H522 lung = test system: NCI-H522 lung
NCI/ADR-RES ovarian = test system: NCI/ADR-RES ovarian
OVCAR-3 ovarian = test system: OVCAR-3 ovarian
OVCAR-4 ovarian = test system: OVCAR-4 ovarian
OVCAR-5 ovarian = test system: OVCAR-5 ovarian
OVCAR-8 ovarian = test system: OVCAR-8 ovarian
PC-3 prostate = test system: PC-3 prostate
RPMI-8226 leukemia = test system: RPMI-8226 leukemia
RXF 393 renal = test system: RXF 393 renal
SF-268 CNS = test system: SF-268 CNS
SF-295 CNS = test system: SF-295 CNS
SF-539 CNS = test system: SF-539 CNS
SK-MEL-2 melanoma = test system: SK-MEL-2 melanoma
SK-MEL-28 melanoma = test system: SK-MEL-28 melanoma
SK-MEL-5 melanoma = test system: SK-MEL-5 melanoma
SK-OV-3 ovarian = test system: SK-OV-3 ovarian
SN12C renal = test system: SN12C renal
SNB-19 CNS = test system: SNB-19 CNS
SNB-75 CNS = test system: SNB-75 CNS
SR leukemia = test system: SR leukemia
SW-620 colon = test system: SW-620 colon
T-47D breast = test system: T-47D breast
TK-10 renal = test system: TK-10 renal
U251 CNS = test system: U251 CNS
UACC-257 melanoma = test system: UACC-257 melanoma
UACC-62 melanoma = test system: UACC-62 melanoma
UO-31 renal = test system: UO-31 renal

Q: With `O=Cc1cncc(-c2ccc3ncnc(N4CCc5cc(F)c(Cl)cc54)c3c2)c1` as the compound, how does the GI50 (786-0 renal) read?
A: 2.11 µM

Q: And the TGI (786-0 renal)?
A: 16.1 µM

Q: What about the GI50 (A498 renal) of the same compound?
A: 0.898 µM

Q: And the TGI (A498 renal)?
A: 6.88 µM

Q: And the GI50 (A549 NSCLC)?
A: 2.64 µM

Q: What about the TGI (A549 NSCLC) of the same compound?
A: 17.1 µM

Q: What about the GI50 (ACHN renal) of the same compound?
A: 1.02 µM

Q: What about the TGI (ACHN renal) of the same compound?
A: 13.5 µM

Q: What about the GI50 (BT-549 breast) of the same compound?
A: 1.77 µM

Q: And the TGI (BT-549 breast)?
A: 12.5 µM

Q: What about the GI50 (CAKI-1 renal) of the same compound?
A: 1.31 µM

Q: And the TGI (CAKI-1 renal)?
A: 16 µM

Q: What about the GI50 (CCRF-CEM leukemia) of the same compound?
A: 3.08 µM

Q: What about the TGI (CCRF-CEM leukemia) of the same compound?
A: 14.9 µM

Q: And the GI50 (COLO 205 colon)?
A: 15.6 µM

Q: And the TGI (COLO 205 colon)?
A: 32.6 µM

Q: What about the GI50 (DU-145 prostate) of the same compound?
A: 3.93 µM

Q: And the TGI (DU-145 prostate)?
A: > 100 µM

Q: And the GI50 (EKVX NSCLC)?
A: 1.25 µM

Q: What about the TGI (EKVX NSCLC) of the same compound?
A: 8.09 µM

Q: What about the GI50 (HCC-2998 colon) of the same compound?
A: 9.79 µM

Q: And the TGI (HCC-2998 colon)?
A: 23.1 µM

Q: And the GI50 (HCT-116 colon)?
A: 5.41 µM

Q: And the TGI (HCT-116 colon)?
A: 20.4 µM

Q: What about the GI50 (HCT-15 colon) of the same compound?
A: 3.41 µM

Q: And the TGI (HCT-15 colon)?
A: 17.2 µM

Q: And the GI50 (HL-60(TB) leukemia)?
A: 2.22 µM

Q: What about the TGI (HL-60(TB) leukemia) of the same compound?
A: 22.1 µM

Q: And the GI50 (HOP-62 NSCLC)?
A: 2.47 µM

Q: And the TGI (HOP-62 NSCLC)?
A: 26 µM

Q: What about the GI50 (HOP-92 NSCLC) of the same compound?
A: 1.86 µM

Q: What about the TGI (HOP-92 NSCLC) of the same compound?
A: 11.9 µM

Q: What about the GI50 (HS 578T breast) of the same compound?
A: 1.74 µM

Q: What about the TGI (HS 578T breast) of the same compound?
A: 8.98 µM

Q: And the GI50 (HT29 colon)?
A: 11.1 µM

Q: And the TGI (HT29 colon)?
A: 34.8 µM

Q: What about the GI50 (IGROV1 ovarian) of the same compound?
A: 1.05 µM

Q: And the TGI (IGROV1 ovarian)?
A: 4.78 µM

Q: And the GI50 (K-562 leukemia)?
A: 7.74 µM

Q: What about the TGI (K-562 leukemia) of the same compound?
A: > 100 µM

Q: And the GI50 (KM12 colon)?
A: 15.4 µM

Q: And the TGI (KM12 colon)?
A: 49.3 µM

Q: And the GI50 (LOX IMVI melanoma)?
A: 3.68 µM

Q: What about the TGI (LOX IMVI melanoma) of the same compound?
A: 17.4 µM

Q: What about the GI50 (M14 melanoma) of the same compound?
A: 5.51 µM

Q: And the TGI (M14 melanoma)?
A: 20.9 µM

Q: What about the GI50 (MALME-3M melanoma) of the same compound?
A: 2.72 µM

Q: What about the TGI (MALME-3M melanoma) of the same compound?
A: 18.6 µM

Q: What about the GI50 (MCF7 breast) of the same compound?
A: 1.64 µM

Q: And the TGI (MCF7 breast)?
A: 7.38 µM

Q: And the GI50 (MDA-MB-231 breast)?
A: 4.85 µM

Q: And the TGI (MDA-MB-231 breast)?
A: 25.3 µM

Q: And the GI50 (MDA-MB-435)?
A: 6.39 µM

Q: And the TGI (MDA-MB-435)?
A: 25.1 µM

Q: And the GI50 (MDA-MB-468 breast)?
A: 1.22 µM

Q: What about the TGI (MDA-MB-468 breast) of the same compound?
A: 3.21 µM

Q: What about the GI50 (MOLT-4 leukemia) of the same compound?
A: 2.45 µM

Q: What about the TGI (MOLT-4 leukemia) of the same compound?
A: 7.06 µM

Q: And the GI50 (NCI-H226 lung)?
A: 5.1 µM

Q: And the TGI (NCI-H226 lung)?
A: 23.9 µM

Q: And the GI50 (NCI-H23 lung)?
A: 10.2 µM

Q: What about the TGI (NCI-H23 lung) of the same compound?
A: 27.1 µM

Q: And the GI50 (NCI-H460 lung)?
A: 4.49 µM

Q: What about the TGI (NCI-H460 lung) of the same compound?
A: 20.2 µM

Q: What about the GI50 (NCI-H522 lung) of the same compound?
A: 11 µM

Q: And the TGI (NCI-H522 lung)?
A: 30.6 µM

Q: And the GI50 (NCI/ADR-RES ovarian)?
A: 5.31 µM

Q: What about the TGI (NCI/ADR-RES ovarian) of the same compound?
A: 36.6 µM

Q: What about the GI50 (OVCAR-3 ovarian) of the same compound?
A: 2.26 µM

Q: And the TGI (OVCAR-3 ovarian)?
A: 34.9 µM

Q: What about the GI50 (OVCAR-4 ovarian) of the same compound?
A: 5.18 µM

Q: What about the TGI (OVCAR-4 ovarian) of the same compound?
A: 41.1 µM

Q: And the GI50 (OVCAR-5 ovarian)?
A: 4.01 µM

Q: What about the TGI (OVCAR-5 ovarian) of the same compound?
A: 22.1 µM

Q: And the GI50 (OVCAR-8 ovarian)?
A: 4.71 µM

Q: And the TGI (OVCAR-8 ovarian)?
A: 46.3 µM

Q: What about the GI50 (PC-3 prostate) of the same compound?
A: 2.84 µM

Q: What about the TGI (PC-3 prostate) of the same compound?
A: 18.2 µM

Q: And the GI50 (RPMI-8226 leukemia)?
A: 3.14 µM

Q: And the TGI (RPMI-8226 leukemia)?
A: 22.6 µM

Q: What about the GI50 (RXF 393 renal) of the same compound?
A: 1.23 µM

Q: And the TGI (RXF 393 renal)?
A: 4.32 µM

Q: And the GI50 (SF-268 CNS)?
A: 5.14 µM

Q: What about the TGI (SF-268 CNS) of the same compound?
A: > 100 µM

Q: And the GI50 (SF-295 CNS)?
A: 3.98 µM

Q: What about the TGI (SF-295 CNS) of the same compound?
A: 21.5 µM

Q: What about the GI50 (SF-539 CNS) of the same compound?
A: 3.75 µM

Q: What about the TGI (SF-539 CNS) of the same compound?
A: 18.7 µM

Q: And the GI50 (SK-MEL-2 melanoma)?
A: 12.1 µM

Q: And the TGI (SK-MEL-2 melanoma)?
A: 28.5 µM

Q: What about the GI50 (SK-MEL-28 melanoma) of the same compound?
A: 7.95 µM

Q: What about the TGI (SK-MEL-28 melanoma) of the same compound?
A: 25.2 µM

Q: What about the GI50 (SK-MEL-5 melanoma) of the same compound?
A: 4.38 µM

Q: And the TGI (SK-MEL-5 melanoma)?
A: 17.6 µM

Q: What about the GI50 (SK-OV-3 ovarian) of the same compound?
A: 2.66 µM

Q: And the TGI (SK-OV-3 ovarian)?
A: 9.59 µM

Q: And the GI50 (SN12C renal)?
A: 2.71 µM

Q: And the TGI (SN12C renal)?
A: 21.2 µM

Q: What about the GI50 (SNB-19 CNS) of the same compound?
A: 4.73 µM

Q: And the TGI (SNB-19 CNS)?
A: 35 µM

Q: And the GI50 (SNB-75 CNS)?
A: 1 µM

Q: What about the TGI (SNB-75 CNS) of the same compound?
A: 10 µM

Q: What about the GI50 (SR leukemia) of the same compound?
A: 3.77 µM

Q: And the TGI (SR leukemia)?
A: 23.7 µM

Q: And the GI50 (SW-620 colon)?
A: 10.3 µM

Q: What about the TGI (SW-620 colon) of the same compound?
A: 26.1 µM

Q: What about the GI50 (T-47D breast) of the same compound?
A: 1.31 µM

Q: And the TGI (T-47D breast)?
A: 11.1 µM

Q: What about the GI50 (TK-10 renal) of the same compound?
A: 1.32 µM

Q: What about the TGI (TK-10 renal) of the same compound?
A: 10.5 µM

Q: What about the GI50 (U251 CNS) of the same compound?
A: 11.1 µM

Q: What about the TGI (U251 CNS) of the same compound?
A: 34 µM

Q: And the GI50 (UACC-257 melanoma)?
A: 8.62 µM

Q: What about the TGI (UACC-257 melanoma) of the same compound?
A: 25.9 µM

Q: What about the GI50 (UACC-62 melanoma) of the same compound?
A: 2.02 µM

Q: What about the TGI (UACC-62 melanoma) of the same compound?
A: 12.4 µM

Q: What about the GI50 (UO-31 renal) of the same compound?
A: 0.523 µM

Q: And the TGI (UO-31 renal)?
A: 13.8 µM
